Laboratory results published in patent US20050019288A1, “Alcohol-based aerosol deodorant composition comprising at lease one zinc salicylate or a derivative thereof” (priority 2003, published 2005).

Key:
[1] = test system: Corynebacterium xerosis; assay: Bactericidal activity of a composition on microorganisms involved in underarm odor; format: cell-based; settings: summary in text for the active agent
Description: The test described herein allows a quantitative determination of the bactericidal activity of a composition on microorganisms under optimum growth conditions, i.e., microorganisms of the Corynebacterium xerosis type (Institut Pasteur Collection No. 5216) grown on soybean tryptocasein agar on a slope.
On the day before the test, 32 g of soybean tryptocasein broth were placed in a pill bottle and incubated at 35° C. On the day of the test, 4 g of the test composition were added and the mixture was homogenized using a Vortex mixer.
A product-free growth control was prepared under the same conditions in order to check that the microorganisms were under favorable growth conditions throughout the duration of the test.
For the preparation of the inoculum, five days before the start of the test, the two bacterial strains were subcultured on a suitable medium. Incubation was performed for 5 days at 35° C. On the day of the test, the slope was washed with about 9 ml of diluent: the suspension obtained has a titre of […] (counting was performed). […]
The colonies were counted on the dishes containing more than 20 and less than 200 colonies. […]
The bactericidal activity of each of the formulations 2, 3 and 4 with respect to the strain Corynebacterium xerosis was measured and compared with a formulation without active agent.

[2] = Efficacy test: odor of incubated underarm sweat judged by a panel of experts against control sweat; design: species or system human; settings: 37° C, average of 18 hours and 24 hours, compared with control sweat
Description: Underarm sweat was collected from six volunteers in a sauna, the samples of individual sweat, stored in ice for a few hours, are at that point virtually odorless. They were subsequently mixed together and divided into 1 ml aliquots. The active agents were added to these aliquots, which were then incubated in an oven at 37° C. After these samples were incubated for 18 and 24 hours, a panel of experts evaluated the intensity of the odor compared with a control sample, which was 1 ml of sweat incubated without addition of active agent.
The results are expressed below as a percentage of change in the unpleasantness of the odor compared with this control sweat sample (average of the percentages of change at 18 hours and 24 hours).
The active agents (A) and (B) correspond to zinc salicylate trihydrate from Bernardy Chimie and to the active agent (C) containing Triclosan.

## Zinc salicylate
[1]
  antibacterial activity on the Corynebacterium xerosis strains: low (1 Log of reduction: low)

## zinc salicylate trihydrate [(A)]
[2]; 1 mg AM/ml of sweat
  % change in the unpleasantness of odor: −45%
[2]; 5 mg AM/ml of sweat
  % change in the unpleasantness of odor: −48%

## Oc1cc(Cl)ccc1Oc1ccc(Cl)cc1Cl [(C), 2,4,4′-trichloro-2′-hydroxydiphenyl ether, reference compound]
[2]; 0.8 mg AM/ml of sweat
  % change in the unpleasantness of odor: −55%
